Measurements published in patent US20240360194A1, “New Peptides as Potent and Selective GIP Receptor Agonists” (Sanofi, priority 2021, published 2024).
In brackets after ≈: the same amount, converted by molar mass. Like-named read-outs stand apart in the source and are kept apart here.

Tests used:
[1] = target: T1, human GLP-1 receptor (hGLP-1R) (Homo sapiens, UniProt P43220); test: Binding assay, displacement of [125I]GLP-1 from HEK-293 membranes over-expressing GLP-1R (SPA); details: [125I]GLP-1 displacement
T1 sequence (P43220 24-463): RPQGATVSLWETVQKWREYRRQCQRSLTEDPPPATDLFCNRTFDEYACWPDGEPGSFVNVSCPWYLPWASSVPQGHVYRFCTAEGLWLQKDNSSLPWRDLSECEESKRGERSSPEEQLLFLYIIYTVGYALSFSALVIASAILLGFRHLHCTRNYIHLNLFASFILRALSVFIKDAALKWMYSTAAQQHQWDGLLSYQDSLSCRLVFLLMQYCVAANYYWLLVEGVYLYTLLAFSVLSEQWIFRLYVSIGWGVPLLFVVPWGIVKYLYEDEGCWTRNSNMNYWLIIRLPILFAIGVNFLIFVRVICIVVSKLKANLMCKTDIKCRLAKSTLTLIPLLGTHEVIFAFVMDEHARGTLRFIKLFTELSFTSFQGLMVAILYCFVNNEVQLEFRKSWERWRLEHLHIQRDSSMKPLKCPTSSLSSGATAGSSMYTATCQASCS
Summary of the method: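 Membranes from HEK-293 cells over-expressing human GIPR or GLP-1R, isolated by homogenising, sonicating and ultracentrifuging at 100000×g into HEPES/EDTA/NaCl buffer with protease inhibitors, were used for binding.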

[2] = Pharmacokinetic evaluation in rats; format: in vivo; details: male, SD, rat, plasma, rats; for AUC(0-t): read-out: AUClast; for Cmax: read-out: Cmax; for half-life: read-out: T1/2 (converted)
Procedure: Compounds were administered in a suitable buffer system, e.g. PBS buffer solution at pH7.4 or DPBS solution at concentrations of 0.05, 0.1, 0.5 or 1 mg/ml depending on dose, species and administration volume. Male SD rats were dosed 0.25 mg/kg, 0.5 mg/kg or 1 mg/kg intravenously (i.v.) or subcutaneously (s.c.). Blood samples were collected after 0.08, 0.25, 0.5, 1, 2, 4, 8, 24, 32, and 48 h post i.v. application and 0.25, 0.5, 1, 2, 4, 8, 24, 32, and 48 h post s.c. application, respectively. Plasma samples were analysed after protein precipitation via liquid chromatography mass spectrometry (LC/MS). PK parameters and half-life were calculated using Phoenix-WinNonlin 8.1 using a non-compartmental model and linear trapezoidal interpolation calculation. Pharmacokinetic profiles were determined as described in Methods.

[3] = target: T2, human GIP receptor (hGIPR) (Homo sapiens, UniProt P48546); test: In vitro cellular cAMP assay for GIP receptor efficacy (HEK-293 cell line over-expressing receptor); format: cell-based
T2 sequence (P48546 22-466): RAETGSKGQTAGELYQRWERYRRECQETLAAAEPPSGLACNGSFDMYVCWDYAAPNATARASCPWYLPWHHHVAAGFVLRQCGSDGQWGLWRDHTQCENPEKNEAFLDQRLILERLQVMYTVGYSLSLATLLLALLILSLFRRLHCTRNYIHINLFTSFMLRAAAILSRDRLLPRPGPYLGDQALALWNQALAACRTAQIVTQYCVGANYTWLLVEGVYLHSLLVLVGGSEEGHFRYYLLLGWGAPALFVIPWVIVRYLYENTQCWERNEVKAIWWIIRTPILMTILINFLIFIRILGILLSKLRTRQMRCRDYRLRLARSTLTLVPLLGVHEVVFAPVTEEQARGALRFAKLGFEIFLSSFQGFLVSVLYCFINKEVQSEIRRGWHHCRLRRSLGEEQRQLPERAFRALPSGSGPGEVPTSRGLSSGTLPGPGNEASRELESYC

[4] = target: T1, human GLP-1 receptor (hGLP-1R); test: In vitro cellular cAMP assay for GLP-1 receptor efficacy (HEK-293 cell line over-expressing receptor); format: cell-based; details: HEK-293, 0.1% BSA
[5] = Solubility assessment (UHPLC-UV of supernatant, target 10 mg/ml); format: physicochemical; details: for solubility at 24 h: read-out: Soluble amount
Summary of the method: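 Peptides at 10 mg/ml (purity-corrected) in 100 mM phosphate pH 7.4, optionally with 2.7 mg/ml m-cresol; gentle agitation 1 h, then 5° C. overnight (24 h). Supernatant after 15 min centrifugation at 2500 RCF quantified by UHPLC-UV, with sequence-based extinction coefficients.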

[6] = Chemical stability assessment (UHPLC-UV purity loss on storage in solution); format: physicochemical
Summary of the method: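 Peptides dissolved at ~300 μM (purity-corrected) in 20 mM phosphate pH 7.4, or 8 mM phosphate pH 7.4 with 14 mg/ml propylene glycol and 5.5 mg/ml phenol; filtered, stored 28 days at 5 and 40 °C. Supernatant analysed by UHPLC-UV; stability expressed as relative purity loss.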

[7] = EC50 hGIPR 0.1% BSA, HEK-293, 0.1% BSA
[8] = 100 mM phosphate buffer pH 7.4 (solubility buffer system A), pH 7.4, Solubility buffer system A: 100 mM phosphate buffer pH 7.4
[9] = pH 7.4, Solubility buffer system C: 100 mM phosphate buffer pH 7.4, 2.7 mg/ml m-cresol
[10] = Chemical stability buffer system A: 20 mM phosphate buffer pH 7.4, ~300 μM

Row | IC50 [1] | AUC(0-t) ([2]; iv, 0.25 mg/kg i.v.) | clearance ([2]; iv, 0.25 mg/kg i.v., read-out: Cl (converted)) | Cmax ([2]; iv, 0.25 mg/kg i.v.) | half-life ([2]; iv, 0.25 mg/kg i.v.) | AUC(0-t) ([2]; sc, 0.5 mg/kg s.c.) | Cmax ([2]; sc, 0.5 mg/kg s.c.) | bioavailability ([2]; sc, 0.5 mg/kg s.c., read-out: F) | half-life ([2]; sc, 0.5 mg/kg s.c.) | EC50 [3, 7] | EC50 [4] | solubility at 24 h [5, 8] | solubility at 24 h [5, 9] | Relative purity loss over 28 days at 40° C. [6, 10] | Relative purity loss over 28 days at 40° C. ([6]; Chemical stability buffer system B: 8 mM phosphate buffer pH 7.4, 14 mg/ml propylene glycol, 5.5 mg/ml phenol) | EC50 ([3]; EC50 hGIPR 0.1% HSA, HEK-293, 0.1% HSA) | Soluble amount ([5]; pH 7.4) | solubility ([5]; pH 7.4, Soluble amount) | Structure (SMILES)
1 | 156 nM | 35700 ng·h/mL | 0.112 mL/min/kg | 4620 ng/mL | 11.2 h | 69100 ng·h/mL | 2880 ng/mL | 98% | 9.7 h | 0.00593 nM | > 10 nM | > 9000 µg/mL | 1800 µg/mL (≈ 415 µM) | 5.6% | 5.9% |  |  |  | CC[C@H](C)[C@H](NC(=O)[C@H](CCCNC(=N)N)NC(=O)[C@H](CC(=O)O)NC(=O)[C@H](CCCCNC(=O)COCCOCCNC(=O)COCCOCCNC(=O)CC[C@H](NC(=O)CCCCCCCCCCCCCCCCC(=O)O)C(=O)O)NC(=O)C(C)(C)NC(=O)[C@@H](NC(=O)[C@H](CO)NC(=O)[C@H](CC(C)C)NC(=O)[C@H](CC(=O)O)NC(=O)[C@H](CO)NC(=O)[C@@H](NC(=O)[C@H](Cc1ccccc1)NC(=O)[C@@H](NC(=O)CNC(=O)[C@H](CCC(=O)O)NC(=O)C(C)(C)NC(=O)[C@@H](N)Cc1ccc(O)cc1)[C@@H](C)O)[C@@H](C)CC)[C@@H](C)CC)C(=O)N[C@@H](Cc1c[nH]cn1)C(=O)N[C@@H](CCC(N)=O)C(=O)NC(C)(C)C(=O)N[C@@H](CCC(=O)O)C(=O)N[C@@H](Cc1ccccc1)C(=O)N[C@H](C(=O)N[C@@H](CCC(=O)O)C(=O)N[C@@H](Cc1c[nH]c2ccccc12)C(=O)N[C@@H](CC(C)C)C(=O)N[C@@H](CC(C)C)C(=O)N[C@@H](C)C(=O)N[C@@H](CCC(N)=O)C(=O)N[C@@H](CCCNC(=N)N)C(=O)NCC(N)=O)[C@@H](C)CC [SEQ ID NO: 6, H2N-Y-Aib-E-G-T-F-I-S-D-L-S-I-Aib-K[{AEEA}2-gGlu-C18OH]-D-R-I-H-Q-Aib-E-F-I-E-W-L-L-A-Q-R-G-NH2]
2 | 133 nM |  |  |  |  |  |  |  |  | 0.0267 nM | > 10 nM | > 9500 µg/mL | 7600 µg/mL (≈ 1760 µM) | 7.4% |  | 0.0011 nM |  |  | CC[C@H](C)[C@H](NC(=O)[C@H](CCCNC(=N)N)NC(=O)[C@H](CC(=O)O)NC(=O)[C@H](CCCCNC(=O)COCCOCCNC(=O)COCCOCCNC(=O)CC[C@H](NC(=O)CCCCCCCCCCCCCCCCC(=O)O)C(=O)O)NC(=O)C(C)(C)NC(=O)[C@@H](NC(=O)[C@H](CO)NC(=O)[C@H](CC(C)C)NC(=O)[C@H](CC(=O)O)NC(=O)[C@H](CO)NC(=O)[C@@H](NC(=O)[C@H](Cc1ccccc1)NC(=O)[C@@H](NC(=O)CNC(=O)[C@H](CCC(=O)O)NC(=O)C(C)(C)NC(=O)[C@@H](N)Cc1ccc(O)cc1)[C@@H](C)O)[C@@H](C)CC)[C@@H](C)CC)C(=O)N[C@@H](Cc1c[nH]cn1)C(=O)N[C@@H](CCC(N)=O)C(=O)NC(C)(C)C(=O)N[C@@H](CCC(=O)O)C(=O)N[C@@H](Cc1ccccc1)C(=O)N[C@H](C(=O)N[C@@H](CCC(=O)O)C(=O)N[C@@H](Cc1c[nH]c2ccccc12)C(=O)N[C@@H](CC(C)C)C(=O)N[C@@H](CC(C)C)C(=O)N[C@@H](C)C(=O)N[C@@H](CCC(N)=O)C(=O)N[C@@H](CCC(=O)O)C(=O)NCC(N)=O)[C@@H](C)CC [SEQ ID NO: 12, H2N-Y-Aib-E-G-T-F-I-S-D-L-S-I-Aib-K[{AEEA}2-gGlu-C18OH]-D-R-I-H-Q-Aib-E-F-I-E-W-L-L-A-Q-E-G-NH2]
3 | 495 nM |  |  |  |  |  |  |  |  | 0.0216 nM | > 10 nM |  |  | 6.5% |  |  | 8.5 mg/mL | > 9500 µg/mL | CC[C@H](C)[C@H](NC(=O)[C@H](Cc1ccccc1)NC(=O)[C@H](CCC(=O)O)NC(=O)[C@H](CCC(=O)O)NC(=O)[C@H](CCC(N)=O)NC(=O)[C@H](Cc1c[nH]cn1)NC(=O)[C@@H](NC(=O)[C@H](CCCNC(=N)N)NC(=O)[C@H](CC(=O)O)NC(=O)[C@H](CCCCNC(=O)COCCOCCNC(=O)COCCOCCNC(=O)CC[C@H](NC(=O)CCCCCCCCCCCCCCCCC(=O)O)C(=O)O)NC(=O)C(C)(C)NC(=O)[C@@H](NC(=O)[C@H](CO)NC(=O)[C@H](CC(C)C)NC(=O)[C@H](CC(=O)O)NC(=O)[C@H](CO)NC(=O)[C@@H](NC(=O)[C@@](C)(CC)NC(=O)[C@@H](NC(=O)CNC(=O)[C@H](CCC(=O)O)NC(=O)C(C)(C)NC(=O)[C@@H](N)Cc1ccc(O)cc1)[C@@H](C)O)[C@@H](C)CC)[C@@H](C)CC)[C@@H](C)CC)C(=O)N[C@@H](CCC(=O)O)C(=O)N[C@@H](Cc1c[nH]c2ccccc12)C(=O)N[C@@H](CC(C)C)C(=O)N[C@@H](CC(C)C)C(=O)N[C@@H](C)C(=O)N[C@@H](CCC(N)=O)C(=O)N[C@@H](CCCNC(=N)N)C(=O)NCC(N)=O [SEQ ID NO: 15, H2N-Y-Aib-E-G-T-Iva-I-S-D-L-S-I-Aib-K[{AEEA}2-gGlu-C18OH]-D-R-I-H-Q-E-E-F-I-E-W-L-L-A-Q-R-G-NH2]
